Measurements: patent US20050026958A1, “Methods of therapeutic treatment using amounts of retinoid components” (Allergan, Inc., priority 2003, published 2005)

Tests used:
[1] = tested on: sebum secretion; details: published reports (Geiger); cited from earlier work
[2] = tested on: RXR retinoid receptors; details: cited from earlier work
[3] = tested on: patients (psoriasis); experiment: Adverse event monitoring in Phase 3 studies of orally administered tazarotene for psoriasis (Table 1); format: in vivo, human; details: Taz 4.5 mg, combined Studies 1 and 2 (N = 348)
Procedure: A series of Phase 3 studies are conducted on orally administered tazarotene for the treatment of psoriasis. Adverse events (side effects) are monitored. In addition, published data for acitretin's side effects are also considered.

[4] = tested on: patients; experiment: Two placebo-controlled 24-week safety studies of oral tazarotene plus 16- to 24-week dose-response evaluations (Example 3); format: in vivo, human; details: 4.5 mg orally once daily vs placebo
Procedure: Two multicenter, double-blind, randomized, placebo-controlled 24-week studies of identical design are conducted to evaluate the safety of oral tazarotene. In addition, 16- to 24-week dose-response evaluations are performed.
In the two safety trials, the incidence of adverse side effects with a 4.5 mg dose administered orally once daily is compared to the incidence of the same side effects with a placebo. […] The majority of these were mild in severity and typical of adverse effects associated with oral retinoids.

[5] = tested on: patients having nodulocystic acne; experiment: Two placebo-controlled dose-ranging safety studies of oral tazarotene in nodulocystic acne (Example 4); format: in vivo, human; details: for joint disorder during treatment period: placebo 0%; for arthralgia during treatment period: placebo 6%; for myalgia during treatment period: placebo 9%; for asthenia during treatment period: placebo 13%; for dry skin during treatment period: placebo 19%; for headache during treatment period: placebo 28%; for cheilitis during treatment period: placebo 31%; for emotional lability (all cases mild): placebo 4%
Procedure: Two placebo-controlled dose-ranging studies are conducted to evaluate the safety of oral tazarotene in patients having nodulocystic acne. In the first study, patients receive orally administered tazarotene at daily doses of 0.4 mg to 2.8 mg in 96 (71+25) patients (12 weeks treatment plus 12 weeks post-treatment). In the second study, daily doses of 0.75 mg to 6 mg tazarotene are administered to 181 patients (24 weeks treatment plus 12 weeks post-treatment).

[6] = tested on: patients (acne); experiment: Adverse event monitoring in studies of orally administered tazarotene for acne (Table 2); format: in vivo, human; details: oral tazarotene for acne, combined Studies 1 and 2 (N = 223)
Procedure: Studies are conducted on orally administered tazarotene for the treatment of acne. Adverse events (side effects) are monitored.

[7] = tested on: patients with severe nodulocystic acne; experiment: Multicenter double-blind randomized placebo-controlled study of oral tazarotene in severe nodulocystic acne (Example 7); format: in vivo, human
Source text: A multicenter, double-blind, randomized, placebo-controlled parallel-group study is undertaken to determine the efficacy of orally administered tazarotene in treating severe nodulocystic acne.
In addition, washout periods for other medications for this study are: 1 week for vitamin A supplements >5000 IU; 2 weeks for topical anti-acne medications (e.g., retinoids, azelaic acid, benzoyl peroxide); 2 weeks for topical or systemic antibiotic therapy that may alter the course of acne; and 6 months for systemic retinoids.
Patients are randomized to receive placebo or oral tazarotene (0.75, 1.5, 3, or 6 mg), in a 1:1:1:1:1 ratio once daily for 24 weeks. After this, the patients are followed without treatment for an additional 12 weeks. Patients discontinuing from the treatment period due to adverse effects or lack of efficacy are eligible for entry into the post-treatment phase.
In the study, overall acne severity is rated as: none (no inflammatory acne lesions); mild (few to several papules or pustules, no nodulocystic lesions); moderate (several to many papules or pustules, few to several nodulocystic lesions); and severe (numerous or extensive papules or pustules, many, for example, at least about 5 or at least about 10, nodulocystic lesions).
Treatment success is defined as at least moderate (about 50%) improvement on the following 7-point global response scale: • 0=completely cleared • 1=almost cleared (about 90% improvement) • 2=marked response (about 75% improvement) • 3=moderate response (about 50% improvement) • 4=slight response (about 25% improvement) • 5=condition unchanged • 6=condition worsened
In this study, facial nodulocystic lesion count includes lesions greater than 5 mm in size. Facial papular/pustular lesion count includes lesions less than or equal to 5 mm in size. Facial non-inflammatory lesion count includes open and closed comedones.
(§1) Sebum output is assessed every 4 weeks at selected centers using the Sebutape® patches, sold by Cuderm Corporation. Urinalysis, chemistry, and hematology values are monitored. Bone formation and resorption assessments (serum bone alkaline phosphatase and serum amino terminal telopeptides, respectively) at selected centers are monitored.
Bone mineral density of spine and proximal femur at selected centers is monitored. Ligament calcification or osteophyte formation (lateral X-ray of the cervical and thoracic spine, and ankle calcaneous) is monitored. Epiphyseal growth plate closure (internal oblique X-ray of the ankle in patients less than or equal to 21 years old) is monitored.

[8] = tested on: sebum secretion; experiment: Sebum output by Sebutape patches in the Example 7 study; format: in vivo, human; details: oral tazarotene 0.75 to 6 mg once daily, maximum of 86 patients
Procedure: as §1

[9] = Food effect (high-fat meal vs fast) on pharmacokinetics of tazarotenic acid after 6.3 mg oral tazarotene; format: in vivo, human; details: healthy subjects
[10] = oral tazarotene 0.4 to 6 mg daily

## CC1=C(/C=C/C(C)=C/C=C/C(C)=C\C(=O)O)C(C)(C)CCC1 [Isotretinoin, isotretinoin]
[1]
  inhibitory effect on the rate of sebum secretion: about 90%

## CC1(C)CC[S+]([O-])c2ccc(C#Cc3ccc(C(=O)O)cn3)cc21 (centres unmarked) [sulfoxide derivative]
[2]
  activation of RXR retinoid receptors: does not activate

## CCOC(=O)c1ccc(C#Cc2ccc3c(c2)C(C)(C)CCS3)nc1 [tazarotene]
[3]
  Atrophy of skin: 0 (0.0) number (%) of patients
  Hyperesthesia: 0 (0.0) number (%) of patients
  Paresthesia: 7 (2.0) number (%) of patients
[4]
  incidence of ocular, auditory, or thyroid problems: no statistically significant between-group differences
[5]; 2.8 mg, n=11
  joint disorder during treatment period: 27%
  arthralgia during treatment period: 9%
  myalgia during treatment period: 0%
  asthenia during treatment period: 0%
  dry skin during treatment period: 18%
  headache during treatment period: 9%
  cheilitis during treatment period: 64%
[5]; 3 mg group (1 patient)
  emotional lability (all cases mild): 3%
[5]; 3 mg group (3 patients: 2 mild, 1 severe), placebo 2%
  depression: 8%
[5]; 3 mg, n=37
  joint disorder during treatment period: 14%
  arthralgia during treatment period: 8%
  myalgia during treatment period: 16%
  asthenia during treatment period: 19%
  dry skin during treatment period: 35%
  headache during treatment period: 19%
  cheilitis during treatment period: 78%
[5]; 6 mg group (5 patients)
  emotional lability (all cases mild): 14%
[5]; 6 mg, n=36
  joint disorder during treatment period: 19%
  arthralgia during treatment period: 28%
  myalgia during treatment period: 25%
  asthenia during treatment period: 19%
  dry skin during treatment period: 50%
  headache during treatment period: 36%
  cheilitis during treatment period: 94%
[5]; all groups
  severe dry skin: No patient has severe dry skin
[5]; [10]
  changes in urinalysis, chemistry, or hematology measures (incl. liver function tests, triglycerides, total cholesterol, HDL cholesterol): no consistent dose-related clinically significant changes
  ligament calcification, osteophyte formation, changes in serum bone alkaline phosphatase, serum amino terminal telopeptides, bone density: not associated with any clinically significant
[6]
  Conjunctivitis: 0 (0.0) number (%) of patients
  Irritation of eyes: 0 (0.0) number (%) of patients
[7]; 0.75 mg group (2/35), placebo 0%
  patients withdrawing due to adverse events in treatment period: 6%
[7]; 1.5 mg group (0/37)
  patients withdrawing due to adverse events in treatment period: 0%
[7]; 3 mg and 6 mg, week 24 and throughout post-treatment phase (p≦0.05)
  incidence of treatment success (≧50% global improvement) vs placebo: significantly higher incidence of treatment success
[7]; 3 mg group (2/37)
  patients withdrawing due to adverse events in treatment period: 5%
[7]; 6 mg group (1/36)
  patients withdrawing due to adverse events in treatment period: 3%
[7]; all treatment groups
  bone formation and resorption (serum bone alkaline phosphatase, serum amino terminal telopeptides): do not appear to be altered
  changes in urinalysis, chemistry, or hematology measures (incl. liver function tests, triglycerides, total cholesterol, HDL cholesterol): None of the treatment groups show any consistent clinically significant changes
  ligament calcification, osteophyte formation, or changes in bone density: None of the treatment groups show any clinically significant
[8]
  effect on sebum secretion relative to placebo (Sebutape method): does not substantially reduce sebum secretion relative to placebo

## CC1(C)CCSc2ccc(C#Cc3ccc(C(=O)O)cn3)cc21 [tazarotenic acid]
[9]; 6.3 mg oral tazarotene, single and multiple dose
  effect of high-fat meal on bioavailability or pharmacokinetics of tazarotenic acid: does not substantially affect
[9]; Day 0, 6.3 mg oral tazarotene after high fat breakfast vs 8-10 hour fast
  average ratio of Cmax values (test/reference): 1.00
[2]
  activation of RXR retinoid receptors: does not activate
